According to PubChem BioAssay (NCI):
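Results reflect a 48-hour exposure of cells in 96-well plates to compound at five concentrations. TGI is the concentration that stops growth completely.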

Tests used:
Experiment in all cases: DTP human tumour cell line panel, 48 h
A549 NSCLC = tested on: A549 NSCLC
COLO 205 colon = tested on: COLO 205 colon
HCT-15 colon = tested on: HCT-15 colon
HL-60(TB) leukemia = tested on: HL-60(TB) leukemia
HOP-62 NSCLC = tested on: HOP-62 NSCLC
M14 melanoma = tested on: M14 melanoma
MALME-3M melanoma = tested on: MALME-3M melanoma
MDA-N = tested on: MDA-N
NCI-H23 lung = tested on: NCI-H23 lung
NCI-H460 lung = tested on: NCI-H460 lung
OVCAR-3 ovarian = tested on: OVCAR-3 ovarian
OVCAR-8 ovarian = tested on: OVCAR-8 ovarian
SF-295 CNS = tested on: SF-295 CNS
SK-MEL-5 melanoma = tested on: SK-MEL-5 melanoma
SNB-75 CNS = tested on: SNB-75 CNS
SW-620 colon = tested on: SW-620 colon
UACC-257 melanoma = tested on: UACC-257 melanoma
UACC-62 melanoma = tested on: UACC-62 melanoma
MOLT-4 leukemia = tested on: MOLT-4 leukemia
UO-31 renal = tested on: UO-31 renal

| Compound | TGI (A549 NSCLC) [µM] | TGI (COLO 205 colon) [µM] | TGI (HCT-15 colon) [µM] | TGI (HL-60(TB) leukemia) [µM] | TGI (HOP-62 NSCLC) [µM] | TGI (M14 melanoma) [µM] | TGI (MALME-3M melanoma) [µM] | TGI (MDA-N) [µM] | TGI (NCI-H23 lung) [µM] | TGI (NCI-H460 lung) [µM] | TGI (OVCAR-3 ovarian) [µM] | TGI (OVCAR-8 ovarian) [µM] | TGI (SF-295 CNS) [µM] | TGI (SK-MEL-5 melanoma) [µM] | TGI (SNB-75 CNS) [µM] | TGI (SW-620 colon) [µM] | TGI (UACC-257 melanoma) [µM] | TGI (UACC-62 melanoma) [µM] | TGI (MOLT-4 leukemia) [µM] | TGI (UO-31 renal) [µM] |
| --- | --- | --- | --- | --- | --- | --- | --- | --- | --- | --- | --- | --- | --- | --- | --- | --- | --- | --- | --- | --- |
| CC1(C)CS(=O)(=O)CC(C)(C)C(=N/N)/C1=N\N | > 100 | > 100 | > 100 | > 100 | > 100 | > 100 | > 100 | > 100 | > 100 | > 100 | > 100 | > 100 | > 100 | > 100 | > 100 | > 100 | > 100 | > 100 |  |  |
| CN(C)c1ccc(N=Nc2ccc3nc[nH]c3c2)cc1 | > 100 | 50.4 | 70.4 | > 100 |  | 46.8 | 53 | > 100 | > 100 | 37.4 |  | > 100 | 57.3 | > 100 | 68.9 | > 100 | 59.5 | 48.7 | > 100 | 65.9 |
| N#CC(C#N)=Cc1ccc2c(c1)OC(Cl)O2 (configuration not stated) | > 100 | 52 | 46.4 | 44.1 |  | 55.7 | 34.8 | 35.2 | > 100 |  | 52.8 | > 100 | 37.4 | 35.1 | 75.4 |  | 41 | 59.3 | > 100 | 30.7 |
| Cc1ccc(/C=N/Nc2cnccn2)s1 | > 100 | > 100 | > 100 | > 100 | > 100 | > 100 | > 100 | > 100 | > 100 |  | > 100 | > 100 | > 100 | > 100 | > 100 | > 100 | > 100 | > 100 | > 100 | > 100 |
| COCn1c2ccc(OC(C)=O)cc2c2c(=O)oc(N(C)C)nc21 | > 100 | > 100 | > 100 | > 100 | > 100 | > 100 | > 100 | > 100 | > 100 | > 100 |  | > 100 | > 100 | > 100 | > 100 | > 100 | > 100 | > 100 | > 100 |  |
| COc1ccc(NS(=O)CCCc2ccccc2)cc1 (configuration not stated) | > 100 | > 100 | > 100 | > 100 | > 100 |  | > 100 | > 100 | > 100 | > 100 | > 100 | > 100 | > 100 | > 100 |  | > 100 | > 100 | > 100 | > 100 | > 100 |
| O=c1cc(-c2cccc(Cl)c2)[nH]c2ncccc12 | > 100 |  | > 100 | 0.152 | 33.4 | > 100 | > 100 | 0.0374 | > 100 | > 100 | 0.957 | > 100 | 0.438 | 1.92 | > 56.1 | > 100 | > 100 | > 100 | > 24.8 | > 54 |
